In the assay the target is CK2A1 (CK2α/β) (Homo sapiens, UniProt P68400). Description: CK2 kinase assay, CK2A1 (CK2α/β). Particulars: Table A; read-out: CK2A1 (CK2α/β) (IC50). Format: biochemical.
CK2A1 (CK2α/β), sequence (P68400 whole entry, species assumed): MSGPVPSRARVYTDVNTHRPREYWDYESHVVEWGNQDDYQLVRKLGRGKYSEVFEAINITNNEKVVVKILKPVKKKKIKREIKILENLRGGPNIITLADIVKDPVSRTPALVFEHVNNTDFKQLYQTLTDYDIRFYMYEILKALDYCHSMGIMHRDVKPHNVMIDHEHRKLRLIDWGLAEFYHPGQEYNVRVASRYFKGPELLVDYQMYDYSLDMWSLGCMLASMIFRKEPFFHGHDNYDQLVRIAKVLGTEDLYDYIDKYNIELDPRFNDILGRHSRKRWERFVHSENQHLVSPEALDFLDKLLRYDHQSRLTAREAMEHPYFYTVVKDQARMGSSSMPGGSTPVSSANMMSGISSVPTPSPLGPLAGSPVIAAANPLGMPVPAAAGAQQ
CK2A1 (CK2α/β), sequence (P67870 whole entry partner, species assumed): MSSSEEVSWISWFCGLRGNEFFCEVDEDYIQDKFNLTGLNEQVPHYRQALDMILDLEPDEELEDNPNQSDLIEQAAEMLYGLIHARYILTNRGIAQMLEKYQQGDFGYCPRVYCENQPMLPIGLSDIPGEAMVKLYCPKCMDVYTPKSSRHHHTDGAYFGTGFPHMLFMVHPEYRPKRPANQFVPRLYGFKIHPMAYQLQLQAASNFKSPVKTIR
On to `COC[C@H](O)CN1CCN(c2cc(C#N)cc(Nc3nc(NC4CC4)c4ncc(C#N)n4n3)c2Cl)CC1` [Example 606, 2-[(2-chloro-5-cyano-3-{4-[(2R)-2-hydroxy-3-methoxypropyl]piperazin-1-yl}phenyl)amino]-4-(cyclopropylamino)imidazo [2,1-f][1,2,4]triazine-7-carbonitrile], for which the IC50 came to 0.72 nM.

For the compound `CS(=O)(=O)NC(=O)CN1CCN(c2cc(C#N)cc(Nc3nc(NC4CC4)c4ncc(C#N)n4n3)c2Cl)CC1` [Example 607, 2-[4-(2-chloro-5-cyano-3-{[7-cyano-4-(cyclopropylamino)imidazo [2,1-f][1,2,4]triazin-2-yl]amino}phenyl)piperazin-1-yl]-N-methanesulfonamide-acetamide], the IC50 is 0.56 nM.

Turning to `CC(CO)N1CC(N2CCN(c3cc(C#N)cc(Nc4nc(NC5CC5)c5ncc(C#N)n5n4)c3Cl)CC2)C1` (stereo not shown) [Example 608, 2-[(2-chloro-5-cyano-3-{4-[1-(1-hydroxypropan-2-yl)azetidin-3-yl]piperazin-1-yl}phenyl)amino]-4-(cyclopropylamino)imidazo [2,1-f][1,2,4]triazine-7-carbonitrile], the IC50 turned out to be 1.48 nM.

Take `N#Cc1cc(Nc2nc(NC3CC3)c3ncc(C#N)n3n2)c(Cl)c(N2CCN(CC3CCCCO3)CC2)c1` (stereo not shown) [Example 609, 2-({2-chloro-5-cyano-3-[4-(oxan-2-ylmethyl)piperazin-1-yl]phenyl}amino)-4-(cyclopropylamino)imidazo [2,1-f][1,2,4]triazine-7-carbonitrile]: the IC50 was determined as 1.39 nM.

As for `CCNc1nc(Nc2cc(C#N)cc(N3CCN([C@H]4C[C@@H](O)C4)CC3)c2Cl)nn2c(C#N)cnc12` [Example 610, 2-[(2-chloro-5-cyano-3-{4-[(1a,3s)-3-hydroxycyclobutyl]piperazin-1-yl}phenyl)amino]-4-(ethylamino)imidazo[2,1-f][1,2,4]triazine-7-carbonitrile], the IC50 came to 1.08 nM.

Turning to `CNC(=O)CN1CCN(c2cc(C#N)cc(Nc3nc(NC4CC4)c4ncc(C#N)n4n3)c2Cl)CC1` [Example 611, 2-[4-(2-chloro-5-cyano-3-{[7-cyano-4-(cyclopropylamino)imidazo [2,1-f][1,2,4]triazin-2-yl]amino}phenyl)piperazin-1-yl]-N-methylacetamide], the IC50 worked out at 0.65 nM.

In the case of `N#Cc1cc(Nc2nc(NC3CC3)c3ncc(C#N)n3n2)c(Cl)c(N2CCN(C3CNC3)CC2)c1` [Example 612, 2-({3-[4-(azetidin-3-yl)piperazin-1-yl]-2-chloro-5-cyanophenyl}amino)-4-(cyclopropylamino)imidazo [2,1-f][1,2,4]triazine-7-carbonitrile], the IC50 was determined as 0.43 nM.

In the case of `CCNc1nc(Nc2cc(C#N)cc(N3CCN([C@H]4C[C@H](O)C4)CC3)c2Cl)nn2c(C#N)cnc12` [Example 613, 2-[(2-chloro-5-cyano-3-{4-[(1r,3r)-3-hydroxycyclobutyl]piperazin-1-yl}phenyl)amino]-4-(ethylamino)imidazo [2,1-f][1,2,4]triazine-7-carbonitrile], the IC50 was 1.62 nM.

`N#Cc1cc(Nc2nc(NC3CC3)c3ncc(C#N)n3n2)c(Cl)c(N2CCN(C3CN(CC(O)CF)C3)CC2)c1` (stereo not shown) [Example 614, 2-[(2-chloro-5-cyano-3-{4-[1-(3-fluoro-2-hydroxypropyl)azetidin-3-yl]piperazin-1-yl}phenyl)amino]-4-(cyclopropylamino)imidazo [2,1-f][1,2,4]triazine-7-carbonitrile]: the IC50 came to 2.5 nM.

For `N#Cc1cc(NCCO)c(Cl)c(Nc2nc(NC3CC3)c3ncc(C#N)n3n2)c1` [Example 615, 2-((2-chloro-5-cyano-3-((2-hydroxyethyl)amino)phenyl)amino)-4-(cyclopropylamino)imidazo[2,1-f][1,2,4]triazine-7-carbonitrile], the IC50 was determined as 0.18 nM.

Consider `COCCOCCNc1cc(C#N)cc(Nc2nc(NC3CC3)c3ncc(C#N)n3n2)c1Cl` [Example 616, 2-((2-chloro-5-cyano-3-((2-(2-methoxyethoxy)ethyl)amino)phenyl)amino)-4-(cyclopropylamino)imidazo[2,1-f][1,2,4]triazine-7-carbonitrile], for which the IC50 was 0.86 nM.

Take `N#Cc1cc(NCCCO)c(Cl)c(Nc2nc(NC3CC3)c3ncc(C#N)n3n2)c1` [Example 617, 2-((2-chloro-5-cyano-3-((3-hydroxypropyl)amino)phenyl)amino)-4-(cyclopropylamino)imidazo[2,1-f][1,2,4]triazine-7-carbonitrile]: the IC50 was 0.34 nM.

On to `CN1CCN(c2cc(C#N)cc(Nc3nc(NC4CC4)c4ncc(C#N)n4n3)c2Cl)C(=O)C1` [Example 618, 2-((2-chloro-5-cyano-3-(4-methyl-2-oxopiperazin-1-yl)phenyl)amino)-4-(cyclopropylamino)imidazo[2,1-f][1,2,4]triazine-7-carbonitrile], for which the IC50 is 2.07 nM.

Take `CN(CCO)CC(=O)Nc1cc(C#N)cc(Nc2nc(NC3CC3)c3ncc(C#N)n3n2)c1Cl` [Example 619, N-(2-chloro-5-cyano-3-((7-cyano-4-(cyclopropylamino)imidazo[2,1-f][1,2,4]triazin-2-yl)amino)phenyl)-2-((2-hydroxyethyl)(methyl)amino)acetamide]: the IC50 worked out at 1.66 nM.

Take `CN(C)CC(=O)Nc1cc(C#N)cc(Nc2nc(NC3CC3)c3ncc(C#N)n3n2)c1Cl` [Example 620, N-(2-chloro-5-cyano-3-((7-cyano-4-(cyclopropylamino)imidazo[2,1-f][1,2,4]triazin-2-yl)amino)phenyl)-2-(dimethylamino)acetamide]: the IC50 is 1.77 nM.

As for `N#Cc1cc(NC(=O)CN2CCOCC2)c(Cl)c(Nc2nc(NC3CC3)c3ncc(C#N)n3n2)c1` [Example 621, N-(2-chloro-5-cyano-3-((7-cyano-4-(cyclopropylamino)imidazo[2,1-f][1,2,4]triazin-2-yl)amino)phenyl)-2-morpholinoacetamide], the IC50 was 1.62 nM.

Take `N#Cc1cc(Nc2nc(NC3CC3)c3ncc(C#N)n3n2)c(Cl)c(N2CCN(CC(N)=O)CC2=O)c1` [Example 623, 2-(4-(2-chloro-5-cyano-3-((7-cyano-4-(cyclopropylamino)imidazo[2,1-f][1,2,4]triazin-2-yl)amino)phenyl)-3-oxopiperazin-1-yl)acetamide]: the IC50 worked out at 3.05 nM.

Take `CNC(=O)CN1CCN(c2cc(C#N)cc(Nc3nc(NC4CC4)c4ncc(C#N)n4n3)c2Cl)C(=O)C1` [Example 625, 2-(4-(2-chloro-5-cyano-3-((7-cyano-4-(cyclopropylamino)imidazo[2,1-f][1,2,4]triazin-2-yl)amino)phenyl)-3-oxopiperazin-1-yl)-N-methylacetamide]: the IC50 stood at 5.8 nM.

On to `N#Cc1cc(Nc2nc(NC3CC3)c3ncc(C#N)n3n2)c(Cl)c(N2CCCOC2=O)c1` [Example 627, 2-((2-chloro-5-cyano-3-(2-oxo-1,3-oxazinan-3-yl)phenyl)amino)-4-(cyclopropylamino)imidazo[2,1-f][1,2,4]triazine-7-carbonitrile], for which the IC50 worked out at 0.83 nM.

For the compound `N#Cc1cc(Nc2nc(NC3CC3)c3ncc(C#N)n3n2)c(Cl)c(N2CCNCC2=O)c1` [Example 628, 2-((2-chloro-5-cyano-3-(2-oxopiperazin-1-yl)phenyl)amino)-4-(cyclopropylamino)imidazo[2,1-f][1,2,4]triazine-7-carbonitrile], the IC50 is 9.85 nM.

In the case of `CN1CCN(c2cc(C#N)cc(Nc3nc(NC4CC4)c4ncc(C#N)n4n3)c2)C(=O)C1` [Example 629, 2-((3-cyano-5-(4-methyl-2-oxopiperazin-1-yl)phenyl)amino)-4-(cyclopropylamino)imidazo[2,1-f][1,2,4]triazine-7-carbonitrile], the IC50 turned out to be 6 nM.

In the case of `CCNc1nc(Nc2cc(C#N)cc(NCCO)c2Cl)nn2c(C#N)cnc12` [Example 630, 2-((2-chloro-5-cyano-3-((2-hydroxyethyl)amino)phenyl)amino)-4-(ethylamino)imidazo[2,1-f][1,2,4]triazine-7-carbonitrile], the IC50 was 0.68 nM.

Consider `COc1ccc(CN2CCN(c3cc(C#N)cc(Nc4nc(NC5CC5)c5ncc(C#N)n5n4)c3Cl)C(=O)C2)cc1` [Example 631, 2-((2-chloro-5-cyano-3-(4-(4-methoxybenzyl)-2-oxopiperazin-1-yl)phenyl)amino)-4-(cyclopropylamino)imidazo[2,1-f][1,2,4]triazine-7-carbonitrile], for which the IC50 is 1.1 nM.

For the compound `N#Cc1cc2c(c(Nc3nc(NC4CC4)c4ncc(C#N)n4n3)c1)NCCOCC(=O)N2` [Example 632, 11-((7-cyano-4-(cyclopropylamino)imidazo[2,1-f][1,2,4]triazin-2-yl)amino)-6-oxo-1,2,3,5,6,7-hexahydrobenzo[e][1,4,7]oxadiazonine-9-carbonitrile], the IC50 turned out to be 1.45 nM.

With `CC(=O)N1CC(N2CCN(c3cc(C#N)cc(Nc4nc(NC5CC5)c5ncc(C#N)n5n4)c3Cl)C(=O)C2)C1` [Example 633, 2-((3-(4-(1-acetylazetidin-3-yl)-2-oxopiperazin-1-yl)-2-chloro-5-cyanophenyl)amino)-4-(cyclopropylamino)imidazo[2,1-f][1,2,4]triazine-7-carbonitrile], the IC50 worked out at 1.2 nM.

For `N#Cc1cc(Nc2nc(NC3CC3)c3ncc(C#N)n3n2)c(Cl)c(N2CCN(CCO)CC2=O)c1` [Example 634, 2-((2-chloro-5-cyano-3-(4-(2-hydroxyethyl)-2-oxopiperazin-1-yl)phenyl)amino)-4-(cyclopropylamino)imidazo[2,1-f][1,2,4]triazine-7-carbonitrile], the IC50 turned out to be 3 nM.

For the compound `CN1CCCN(c2cc(C#N)cc(Nc3nc(NC4CC4)c4ncc(C#N)n4n3)c2Cl)C(=O)C1` [Example 635, 2-((2-chloro-5-cyano-3-(4-methyl-2-oxo-1,4-diazepan-1-yl)phenyl)amino)-4-(cyclopropylamino)imidazo[2,1-f][1,2,4]triazine-7-carbonitrile], the IC50 was found to be 1.83 nM.

With `CCN1CCN(c2cc(C#N)cc(Nc3nc(NC4CC4)c4ncc(C#N)n4n3)c2Cl)C(=O)C1` [Example 636, 2-((2-chloro-5-cyano-3-(4-ethyl-2-oxopiperazin-1-yl)phenyl)amino)-4-(cyclopropylamino)imidazo[2,1-f][1,2,4]triazine-7-carbonitrile], the IC50 came to 1 nM.

Values taken from patent US9273057B2 (Bristol-Myers Squibb Company, priority 2012, dated 2016).
